What was measured:
Experiment in all cases: Test E pre-/postemergence herbicide test
prickly sida = assay type: in vivo, Sida spinosa
Outline: (§1)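 Pre-/postemergence spray, solvent + surfactant vehicle; post timing 1- to 4-leaf stage (2–18 cm). Greenhouse 12–14 d. Visual score 0 (no effect) to 100 (complete control) relative to controls.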

mustard = assay type: in vivo, Brassica nigra
Outline: as §1

common purslane = assay type: in vivo, Portulaca oleracea
Outline: as §1

barnyardgrass = assay type: in vivo, Echinochloa crus-galli
Outline: as §1

itchgrass = assay type: in vivo, Rottboellia cochinchinensis
Outline: as §1

johnsongrass = assay type: in vivo, Sorghum halepense
Outline: as §1

quackgrass = assay type: in vivo, Elytrigia repens
Outline: as §1

large crabgrass = assay type: in vivo, Digitaria sanguinalis
Outline: as §1

broadleaf signalgrass = assay type: in vivo, Brachiaria platyphylla
Outline: as §1

Italian ryegrass = assay type: in vivo, Lolium multiflorum
Outline: as §1

[1] = Postemergence, 500 g ai/ha, scale 0 to 100
[2] = Postemergence, 250 g ai/ha, scale 0 to 100
[3] = Preemergence, 62 g ai/ha, scale 0 to 100
[4] = Preemergence, 125 g ai/ha, scale 0 to 100
[5] = Preemergence, 250 g ai/ha, scale 0 (no effect) to 100 (complete control)
[6] = Preemergence, 500 g ai/ha, scale 0 (no effect) to 100 (complete control)
[7] = postemergence, 125 g ai/ha, scale 0 to 100
[8] = postemergence, 62 g ai/ha, scale 0 to 100

CCNC(=O)c1ccc(F)c(NC(=O)c2cn(C(C)(C)C)nc2CC)c1 [Compound 193]
80: Plant response rating, Black Mustard (mustard; [3]) | Plant response rating, Barnyardgrass (barnyardgrass; [2]) | Plant response rating, Itchgrass (itchgrass; [5]) | Plant response rating, Johnsongrass (johnsongrass; [1]) | Plant response rating, Quackgrass (quackgrass; [1]) | Plant response rating, Quackgrass (quackgrass; [2]) | Plant response rating, Crabgrass, Large (large crabgrass; [4]) | Plant response rating, Crabgrass, Large (large crabgrass; [7]) | Plant response rating, Signalgrass (broadleaf signalgrass; [1])
40: Plant response rating, Johnsongrass (johnsongrass; [8])
30: Plant response rating, Itchgrass (itchgrass; [8]) | Plant response rating, Ryegrass, Italian (Italian ryegrass; [8])
75: Plant response rating, Prickly Sida (prickly sida; [2]) | Plant response rating, Barnyardgrass (barnyardgrass; [4]) | Plant response rating, Barnyardgrass (barnyardgrass; [7]) | Plant response rating, Itchgrass (itchgrass; [1]) | Plant response rating, Johnsongrass (johnsongrass; [4]) | Plant response rating, Signalgrass (broadleaf signalgrass; [2])
50: Plant response rating, Signalgrass (broadleaf signalgrass; [7])
10: Plant response rating, Barnyardgrass (barnyardgrass; [8]) | Plant response rating, Quackgrass (quackgrass; [3]) | Plant response rating, Crabgrass, Large (large crabgrass; [8]) | Plant response rating, Signalgrass (broadleaf signalgrass; [3]) | Plant response rating, Signalgrass (broadleaf signalgrass; [8])
95: Plant response rating, Prickly Sida (prickly sida; [1]) | Plant response rating, Prickly Sida (prickly sida; [6]) | Plant response rating, Black Mustard (mustard; [2]) | Plant response rating, Black Mustard (mustard; [7]) | Plant response rating, Barnyardgrass (barnyardgrass; [6]) | Plant response rating, Johnsongrass (johnsongrass; [6]) | Plant response rating, Quackgrass (quackgrass; [6]) | Plant response rating, Signalgrass (broadleaf signalgrass; [6]) | Plant response rating, Ryegrass, Italian (Italian ryegrass; [1]) | Plant response rating, Ryegrass, Italian (Italian ryegrass; [2])
0: Plant response rating, Quackgrass (quackgrass; [8])
100: Plant response rating, Black Mustard (mustard; [1]) | Plant response rating, Black Mustard (mustard; [4]) | Plant response rating, Black Mustard (mustard; [5]) | Plant response rating, Black Mustard (mustard; [6]) | Plant response rating, Purslane (common purslane; [5]) | Plant response rating, Purslane (common purslane; [6]) | Plant response rating, Itchgrass (itchgrass; [6]) | Plant response rating, Crabgrass, Large (large crabgrass; [1]) | Plant response rating, Crabgrass, Large (large crabgrass; [2]) | Plant response rating, Crabgrass, Large (large crabgrass; [5]) | Plant response rating, Crabgrass, Large (large crabgrass; [6]) | Plant response rating, Ryegrass, Italian (Italian ryegrass; [5]) | Plant response rating, Ryegrass, Italian (Italian ryegrass; [6])
90: Plant response rating, Barnyardgrass (barnyardgrass; [1]) | Plant response rating, Ryegrass, Italian (Italian ryegrass; [4])
85: Plant response rating, Purslane (common purslane; [1]) | Plant response rating, Barnyardgrass (barnyardgrass; [5]) | Plant response rating, Johnsongrass (johnsongrass; [5])
60: Plant response rating, Prickly Sida (prickly sida; [7]) | Plant response rating, Prickly Sida (prickly sida; [8]) | Plant response rating, Black Mustard (mustard; [8]) | Plant response rating, Purslane (common purslane; [2]) | Plant response rating, Purslane (common purslane; [4]) | Plant response rating, Purslane (common purslane; [7]) | Plant response rating, Itchgrass (itchgrass; [2]) | Plant response rating, Itchgrass (itchgrass; [7]) | Plant response rating, Quackgrass (quackgrass; [4]) | Plant response rating, Crabgrass, Large (large crabgrass; [3]) | Plant response rating, Signalgrass (broadleaf signalgrass; [4]) | Plant response rating, Ryegrass, Italian (Italian ryegrass; [7])
20: Plant response rating, Prickly Sida (prickly sida; [3]) | Plant response rating, Purslane (common purslane; [8]) | Plant response rating, Barnyardgrass (barnyardgrass; [3]) | Plant response rating, Itchgrass (itchgrass; [3]) | Plant response rating, Johnsongrass (johnsongrass; [3]) | Plant response rating, Ryegrass, Italian (Italian ryegrass; [3])
70: Plant response rating, Prickly Sida (prickly sida; [4]) | Plant response rating, Prickly Sida (prickly sida; [5]) | Plant response rating, Itchgrass (itchgrass; [4]) | Plant response rating, Johnsongrass (johnsongrass; [2]) | Plant response rating, Johnsongrass (johnsongrass; [7]) | Plant response rating, Quackgrass (quackgrass; [5]) | Plant response rating, Quackgrass (quackgrass; [7]) | Plant response rating, Signalgrass (broadleaf signalgrass; [5])

CCc1nn(C(C)(C)C)cc1C(=O)Nc1cc(C(=O)N(C)C)ccc1F [Compound 222, N-[5-[(dimethylamino)carbonyl]-2-fluorophenyl]-1-(1,1-dimethylethyl)-3-ethyl-1H-pyrazole-4-carboxamide]
60: Plant response rating, Purslane (common purslane; [2]) | Plant response rating, Itchgrass (itchgrass; [7]) | Plant response rating, Itchgrass (itchgrass; [8]) | Plant response rating, Johnsongrass (johnsongrass; [2]) | Plant response rating, Johnsongrass (johnsongrass; [7]) | Plant response rating, Crabgrass, Large (large crabgrass; [8]) | Plant response rating, Signalgrass (broadleaf signalgrass; [4])
70: Plant response rating, Prickly Sida (prickly sida; [4]) | Plant response rating, Purslane (common purslane; [3]) | Plant response rating, Barnyardgrass (barnyardgrass; [2]) | Plant response rating, Itchgrass (itchgrass; [2]) | Plant response rating, Johnsongrass (johnsongrass; [3]) | Plant response rating, Crabgrass, Large (large crabgrass; [3])
20: Plant response rating, Prickly Sida (prickly sida; [3])
40: Plant response rating, Signalgrass (broadleaf signalgrass; [7])
80: Plant response rating, Johnsongrass (johnsongrass; [4]) | Plant response rating, Quackgrass (quackgrass; [2]) | Plant response rating, Quackgrass (quackgrass; [4]) | Plant response rating, Crabgrass, Large (large crabgrass; [7]) | Plant response rating, Signalgrass (broadleaf signalgrass; [2]) | Plant response rating, Ryegrass, Italian (Italian ryegrass; [7])
95: Plant response rating, Black Mustard (mustard; [1]) | Plant response rating, Black Mustard (mustard; [2]) | Plant response rating, Itchgrass (itchgrass; [4]) | Plant response rating, Itchgrass (itchgrass; [5]) | Plant response rating, Itchgrass (itchgrass; [6]) | Plant response rating, Signalgrass (broadleaf signalgrass; [5]) | Plant response rating, Signalgrass (broadleaf signalgrass; [6])
90: Plant response rating, Prickly Sida (prickly sida; [8]) | Plant response rating, Black Mustard (mustard; [3]) | Plant response rating, Black Mustard (mustard; [7]) | Plant response rating, Black Mustard (mustard; [8]) | Plant response rating, Barnyardgrass (barnyardgrass; [4]) | Plant response rating, Johnsongrass (johnsongrass; [5]) | Plant response rating, Crabgrass, Large (large crabgrass; [2])
100: Plant response rating, Prickly Sida (prickly sida; [1]) | Plant response rating, Prickly Sida (prickly sida; [2]) | Plant response rating, Prickly Sida (prickly sida; [5]) | Plant response rating, Prickly Sida (prickly sida; [6]) | Plant response rating, Prickly Sida (prickly sida; [7]) | Plant response rating, Black Mustard (mustard; [4]) | Plant response rating, Black Mustard (mustard; [5]) | Plant response rating, Black Mustard (mustard; [6]) | Plant response rating, Purslane (common purslane; [4]) | Plant response rating, Purslane (common purslane; [5]) | Plant response rating, Purslane (common purslane; [6]) | Plant response rating, Barnyardgrass (barnyardgrass; [5]) | Plant response rating, Barnyardgrass (barnyardgrass; [6]) | Plant response rating, Johnsongrass (johnsongrass; [6]) | Plant response rating, Quackgrass (quackgrass; [5]) | Plant response rating, Quackgrass (quackgrass; [6]) | Plant response rating, Crabgrass, Large (large crabgrass; [1]) | Plant response rating, Crabgrass, Large (large crabgrass; [4]) | Plant response rating, Crabgrass, Large (large crabgrass; [5]) | Plant response rating, Crabgrass, Large (large crabgrass; [6]) | Plant response rating, Ryegrass, Italian (Italian ryegrass; [4]) | Plant response rating, Ryegrass, Italian (Italian ryegrass; [5]) | Plant response rating, Ryegrass, Italian (Italian ryegrass; [6])
50: Plant response rating, Barnyardgrass (barnyardgrass; [3]) | Plant response rating, Barnyardgrass (barnyardgrass; [7]) | Plant response rating, Barnyardgrass (barnyardgrass; [8]) | Plant response rating, Ryegrass, Italian (Italian ryegrass; [3]) | Plant response rating, Ryegrass, Italian (Italian ryegrass; [8])
75: Plant response rating, Itchgrass (itchgrass; [3]) | Plant response rating, Quackgrass (quackgrass; [7])
85: Plant response rating, Quackgrass (quackgrass; [1]) | Plant response rating, Signalgrass (broadleaf signalgrass; [1]) | Plant response rating, Ryegrass, Italian (Italian ryegrass; [1]) | Plant response rating, Ryegrass, Italian (Italian ryegrass; [2])
10: Plant response rating, Purslane (common purslane; [8]) | Plant response rating, Johnsongrass (johnsongrass; [8]) | Plant response rating, Quackgrass (quackgrass; [3]) | Plant response rating, Signalgrass (broadleaf signalgrass; [3]) | Plant response rating, Signalgrass (broadleaf signalgrass; [8])
30: Plant response rating, Purslane (common purslane; [7]) | Plant response rating, Quackgrass (quackgrass; [8])
